Experimental data from ChEMBL document CHEMBL1150041, “Arylpiperazide derivatives of phenylpiperazines as a new class of potent and selective 5-HT1B receptor antagonists” (Bioorg Med Chem Lett, 1997).

Tests used:
[1] = target: T1, 5-hydroxytryptamine receptor 1B (Homo sapiens, UniProt P28222); assay: Affinity for 5-hydroxytryptamine 1B receptor subtype
[2] = target: 5-hydroxytryptamine receptor 1D (Homo sapiens, UniProt P28221); assay: Affinity for 5-hydroxytryptamine 1D receptor subtype
[3] = target: T1, 5-hydroxytryptamine receptor 1B; assay: The compound was evaluated for intrinsic activity against human cloned 5-hydroxytryptamine 1B receptor; silent antagonist; format: functional
[4] = target: T1, 5-hydroxytryptamine receptor 1B; assay: The compound was evaluated for intrinsic activity against human cloned 5-hydroxytryptamine 1B receptor
[5] = target: T2, 5-hydroxytryptamine receptor 1A (Homo sapiens, UniProt P08908); assay: Affinity for 5-hydroxytryptamine 1A receptor subtype
T2 sequence (P08908 whole entry): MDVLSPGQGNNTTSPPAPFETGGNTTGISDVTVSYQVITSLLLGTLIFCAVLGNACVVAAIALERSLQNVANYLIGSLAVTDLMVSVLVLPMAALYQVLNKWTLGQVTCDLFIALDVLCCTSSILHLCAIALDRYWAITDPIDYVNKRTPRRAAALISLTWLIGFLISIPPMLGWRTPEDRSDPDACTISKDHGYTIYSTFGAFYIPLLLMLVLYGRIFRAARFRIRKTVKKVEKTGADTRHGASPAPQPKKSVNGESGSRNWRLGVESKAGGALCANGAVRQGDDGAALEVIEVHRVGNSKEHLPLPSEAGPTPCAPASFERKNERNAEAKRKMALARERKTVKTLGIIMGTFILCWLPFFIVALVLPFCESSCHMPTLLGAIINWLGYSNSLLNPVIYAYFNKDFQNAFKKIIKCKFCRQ

[6] = target: T1, 5-hydroxytryptamine receptor 1B; assay: The compound was evaluated for intrinsic activity against human cloned 5-hydroxytryptamine 1B receptor; Slient antagonist; format: functional; details: filed as antagonist
[7] = target: T1, 5-hydroxytryptamine receptor 1B; assay: The compound was evaluated for antagonist potency at human cloned 5-hydroxytryptamine 1B receptor

Sequence of 5-hydroxytryptamine receptor 1D (P28221 whole entry): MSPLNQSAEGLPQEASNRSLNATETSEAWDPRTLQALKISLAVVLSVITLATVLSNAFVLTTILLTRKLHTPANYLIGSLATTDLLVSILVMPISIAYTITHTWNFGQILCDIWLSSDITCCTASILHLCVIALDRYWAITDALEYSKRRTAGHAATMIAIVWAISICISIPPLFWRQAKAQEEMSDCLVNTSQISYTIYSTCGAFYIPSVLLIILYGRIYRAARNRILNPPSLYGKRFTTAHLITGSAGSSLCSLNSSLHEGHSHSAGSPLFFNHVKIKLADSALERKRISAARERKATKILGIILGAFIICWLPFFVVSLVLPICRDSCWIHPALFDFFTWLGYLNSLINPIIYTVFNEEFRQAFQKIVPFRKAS
T1 sequence (P28222 whole entry): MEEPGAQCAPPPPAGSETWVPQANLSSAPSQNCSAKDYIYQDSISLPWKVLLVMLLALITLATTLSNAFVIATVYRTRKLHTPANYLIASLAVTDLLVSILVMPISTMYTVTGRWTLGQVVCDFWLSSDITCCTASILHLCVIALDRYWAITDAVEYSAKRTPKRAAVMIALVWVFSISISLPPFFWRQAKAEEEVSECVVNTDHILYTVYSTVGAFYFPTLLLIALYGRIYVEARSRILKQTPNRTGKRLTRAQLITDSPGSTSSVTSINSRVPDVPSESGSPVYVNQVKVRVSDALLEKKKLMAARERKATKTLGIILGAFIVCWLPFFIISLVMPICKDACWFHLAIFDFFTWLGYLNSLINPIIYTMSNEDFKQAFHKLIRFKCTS

Row | SMILES | Ki [1] [µM] | Ki [2] [µM] | Kb [3] [µM] | Kb [4] [µM] | Ki [5] [µM] | Intrinsic activity [6] | KB [7] [nM]
1 | COc1ccc(NCC(=O)N2CCN(c3ccccc3C)CC2)cc1N1CCN(C)CC1 | 0.04 | 0.42 | 0.195 | – | – | – | –
2 | COc1ccc(N2CCN(C(=O)Nc3ccc(OC)c(N4CCN(C)CC4)c3)CC2)cc1 | – | – | – | 0.012 | – | – | –
3 | COc1ccc(NC(=O)c2ccc(-c3ccc(-c4noc(C)n4)cc3C)cc2)cc1N1CCN(C)CC1 [GR-127935] | 0.00014 | – | – | – | 0.072 | – | –
4 | Cc1ccccc1N1CCN(C(=O)Oc2ccc(Cl)c(N3CCN(C)CC3)c2)CC1 | 0.15 | 0.0036 | – | – | > 1 | Antagonist | –
5 | Cc1nc(-c2ccc(-c3ccc(C(=O)N4CCc5cc6c(cc54)C4(CCN(C)CC4)CO6)cc3)c(C)c2)no1 [SB-224289] | – | – | – | – | > 1 | – | –
6 | COc1ccc(NC(=O)N2CCN(c3ccc(C)cc3C)CC2)cc1N1CCN(C)CC1 | 0.0018 | 0.088 | – | – | 0.571 | – | 1.9
7 | COc1ccc(NC(=O)N2CCN(c3ccccc3)CC2)cc1N1CCN(C)CC1 | 0.018 | 0.34 | – | 0.027 | 0.45 | – | –
8 | COc1cccc(N2CCN(C(=O)Nc3ccc(OC)c(N4CCN(C)CC4)c3)CC2)c1 | 0.008 | 0.07 | – | – | 0.079 | – | –
9 | COc1ccc(NC(=O)N2CCN(c3c(C)cccc3C)CC2)cc1N1CCN(C)CC1 | 0.0013 | 0.037 | – | – | 0.393 | – | 10
10 | COc1ccc(NC(=O)N2CCN(c3ccccc3OC)CC2)cc1N1CCN(C)CC1 | – | 0.09 | – | 0.016 | – | – | –
11 | Cc1ccccc1N1CCN(C(=O)COc2ccc(Cl)c(N3CCN(C)CC3)c2)CC1 | 0.011 | 0.24 | 0.038 | – | > 1 | – | –
12 | COc1ccc(NC(=O)N2CCN(c3cccc4c3CCCC4)CC2)cc1N1CCN(C)CC1 | 0.0005 | 0.026 | – | 0.039 | 0.257 | – | –
13 | COc1ccc(NC(=O)N2CCN(c3ccccc3C)CC2)cc1N1CCN(C)CC1 | – | – | 0.012 | – | 0.39 | – | –
